From US7910751B2, “Heterocyclidene acetamide derivative” (Mochida Pharmaceutical Co., Ltd., priority 2005, dated 2011)

Target: T1, human TRPV1 (Homo sapiens, UniProt Q8NER1)
T1 construct: expressed in transfected cells; host or cells: CHO-K1
Assay: Measurement of capsaicin-induced Ca influx in human TRPV1 transformed CHO cell line using FDSS-6000
Format: cell-based
Conditions: concentration at which the capsaicin concentration-reaction curve is shifted two times to the right, human TRPV1 transformed CHO cells

T1 sequence (Q8NER1 whole entry): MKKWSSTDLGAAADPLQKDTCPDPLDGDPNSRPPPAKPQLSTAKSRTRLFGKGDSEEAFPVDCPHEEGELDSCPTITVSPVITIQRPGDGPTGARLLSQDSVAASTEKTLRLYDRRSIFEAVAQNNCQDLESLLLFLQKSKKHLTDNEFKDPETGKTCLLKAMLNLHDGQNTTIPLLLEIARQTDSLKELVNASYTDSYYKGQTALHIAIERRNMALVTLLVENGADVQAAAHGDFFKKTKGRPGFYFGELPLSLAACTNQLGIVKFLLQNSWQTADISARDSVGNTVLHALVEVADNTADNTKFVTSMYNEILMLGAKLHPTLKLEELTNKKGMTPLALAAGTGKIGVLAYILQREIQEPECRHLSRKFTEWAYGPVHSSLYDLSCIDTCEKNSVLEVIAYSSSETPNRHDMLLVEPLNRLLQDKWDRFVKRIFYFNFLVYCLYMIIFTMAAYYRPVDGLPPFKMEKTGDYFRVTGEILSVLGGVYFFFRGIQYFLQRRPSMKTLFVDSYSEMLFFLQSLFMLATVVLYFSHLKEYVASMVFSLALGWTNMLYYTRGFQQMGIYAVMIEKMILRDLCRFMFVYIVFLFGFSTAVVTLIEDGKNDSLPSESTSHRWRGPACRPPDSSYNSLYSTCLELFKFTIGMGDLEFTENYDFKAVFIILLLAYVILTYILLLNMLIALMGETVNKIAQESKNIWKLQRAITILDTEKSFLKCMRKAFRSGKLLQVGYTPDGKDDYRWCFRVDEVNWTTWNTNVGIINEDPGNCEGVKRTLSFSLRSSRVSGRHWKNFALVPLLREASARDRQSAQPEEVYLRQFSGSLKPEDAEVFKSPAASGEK

| Structure (SMILES) | A2 VALUE |
| --- | --- |
| O=C(/C=C1\CCCOc2cc(C(F)(F)F)ccc21)Nc1ccc2cc[nH]c2c1 [Example 137, (E)-2-(8-trifluoromethyl-3,4-dihydrobenzo[b]oxepin-5(2H)-ylidene)-N-(indol-6-yl)acetamide] | A (compounds of the present invention having an A2 value of less than 100 nM are represented by A) |
| O=C(/C=C1\CCCOc2cc(C(F)(F)F)ccc21)Nc1ccc2[nH]ccc2c1 [Example 138, (E)-2-(8-trifluoromethyl-3,4-dihydrobenzo[b]oxepin-5(2H)-ylidene)-N-(indol-5-yl)acetamide] | A (compounds of the present invention having an A2 value of less than 100 nM are represented by A) |
| O=C(/C=C1\CCCOc2cc(C(F)(F)F)ccc21)Nc1ccc2c(c1)OCCCO2 [Example 142, (E)-2-(8-trifluoromethyl-3,4-dihydrobenzo[b]oxepin-5(2H)-ylidene)-N-(3,4-dihydro-2H-benzo[b]dioxepin-7-yl)acetamide] | A (compounds of the present invention having an A2 value of less than 100 nM are represented by A) |
| O=C(/C=C1\CCCOc2cc(C(F)(F)F)ccc21)Nc1ccc2c(c1)OC(F)(F)O2 [Example 143, (E)-2-(8-trifluoromethyl-3,4-dihydrobenzo[b]oxepin-5(2H)-ylidene)-N-(2,2-difluoro-1,3-benzodioxol-5-yl)acetamide] | B (compounds having an A2 value of 100 nM or more are represented by B) |
| O=C(/C=C1\CCCOc2cc(C(F)(F)F)ccc21)Nc1ccc2c(c1)OCO2 [Example 144, (E)-2-(8-trifluoromethyl-3,4-dihydrobenzo[b]oxepin-5(2H)-ylidene)-N-(1,3-benzodioxol-5-yl)acetamide] | A (compounds of the present invention having an A2 value of less than 100 nM are represented by A) |
| Cn1ccc2cc(NC(=O)/C=C3\CCCOc4cc(C(F)(F)F)ccc43)ccc21 [Example 149, (E)-2-(8-trifluoromethyl-3,4-dihydrobenzo[b]oxepin-5(2H)-ylidene)-N-(1-methylindol-5-yl)acetamide] | A (compounds of the present invention having an A2 value of less than 100 nM are represented by A) |
| O=C(/C=C1\CCCOc2cc(C(F)(F)F)ccc21)Nc1cccc2c(O)cccc12 [Example 150, (E)-2-(8-trifluoromethyl-3,4-dihydrobenzo[b]oxepin-5(2H)-ylidene)-N-(5-hydroxynaphthalen-1-yl)acetamide] | A (compounds of the present invention having an A2 value of less than 100 nM are represented by A) |
| O=C(/C=C1\CCCOc2cc(C(F)(F)F)ccc21)Nc1ccc2ccn(CCO)c2c1 [Example 151, (E)-2-(8-trifluoromethyl-3,4-dihydrobenzo[b]oxepin-5(2H)-ylidene)-N-(1-(2-hydroxyethyl)indol-6-yl)acetamide] | A (compounds of the present invention having an A2 value of less than 100 nM are represented by A) |
| Cn1ccc2ccc(NC(=O)/C=C3\CCCOc4cc(C(F)(F)F)ccc43)cc21 [Example 152, (E)-2-(8-trifluoromethyl-3,4-dihydrobenzo[b]oxepin-5(2H)-ylidene)-N-(1-methylindol-6-yl)acetamide] | A (compounds of the present invention having an A2 value of less than 100 nM are represented by A) |
| O=C(/C=C1\CCCOc2cc(C(F)(F)F)ccc21)Nc1ccc2c(c1)C(=O)CC2 [Example 157, (E)-2-(8-trifluoromethyl-3,4-dihydrobenzo[b]oxepin-5(2H)-ylidene)-N-(indan-1-on-6-yl)acetamide] | A (compounds of the present invention having an A2 value of less than 100 nM are represented by A) |
| O=C(/C=C1\CCCOc2cc(C(F)(F)F)ccc21)Nc1cccc2c1CCC2O (stereo not drawn) [Example 160, (E)-2-(8-trifluoromethyl-3,4-dihydrobenzo[b]oxepin-5(2H)-ylidene)-N-(indan-1-ol-4-yl)acetamide] | A (compounds of the present invention having an A2 value of less than 100 nM are represented by A) |
| CC(=O)OC1CCc2c(NC(=O)/C=C3\CCCOc4cc(C(F)(F)F)ccc43)cccc21 (stereo not drawn) [Example 161, (E)-2-(8-trifluoromethyl-3,4-dihydrobenzo[b]oxepin-5(2H)-ylidene)-N-(indan-1-acetoxy-4-yl)acetamide] | B (compounds having an A2 value of 100 nM or more are represented by B) |
| O=C(/C=C1\CCCOc2cc(C(F)(F)F)ccc21)Nc1cccc2c1CC(O)C2 (stereo not drawn) [Example 163, (E)-2-(8-trifluoromethyl-3,4-dihydrobenzo[b]oxepin-5(2H)-ylidene)-N-(indan-2-ol-4-yl)acetamide] | A (compounds of the present invention having an A2 value of less than 100 nM are represented by A) |
| O=C(/C=C1\CCCOc2cc(C(F)(F)F)ccc21)Nc1ccc2c(ccn2CCO)c1 [Example 164] | A (compounds of the present invention having an A2 value of less than 100 nM are represented by A) |
| O=C(/C=C1\CCCOc2cc(C(F)(F)F)ccc21)Nc1ccc2c(c1)OC(CO)CO2 (stereo not drawn) [Example 165, (E)-2-(8-trifluoromethyl-3,4-dihydrobenzo[b]oxepin-5(2H)-ylidene)-N-(3-hydroxymethyl-2,3-dihydro-1,4-benzodioxin-6-yl)acetamide] | A (compounds of the present invention having an A2 value of less than 100 nM are represented by A) |
| O=C(/C=C1\CCCOc2cc(C(F)(F)F)ccc21)Nc1ccc2c(c1)C(=O)NC2 [Example 166, (E)-2-(8-trifluoromethyl-3,4-dihydrobenzo[b]oxepin-5(2H)-ylidene)-N-(2,3-dihydro-isoindol-1-on-6-yl)acetamide] | A (compounds of the present invention having an A2 value of less than 100 nM are represented by A) |
| O=C(/C=C1\CCCOc2cc(C(F)(F)F)ccc21)Nc1ccc2c(c1)NCCC2 [Example 167, (E)-2-(8-trifluoromethyl-3,4-dihydrobenzo[b]oxepin-5(2H)-ylidene)-N-(1,2,3,4-tetrahydroquinolin-7-yl)acetamide] | A (compounds of the present invention having an A2 value of less than 100 nM are represented by A) |
| O=C(/C=C1\CCCOc2cc(C(F)(F)F)ccc21)Nc1cccc2c1CC1OC1C2 (stereo not drawn) [Example 169, (E)-2-(8-trifluoromethyl-3,4-dihydrobenzo[b]oxepin-5(2H)-ylidene)-N-(1a,2,7,7a-tetrahydronaphtho[b]oxiren-3-yl)acetamide] | A (compounds of the present invention having an A2 value of less than 100 nM are represented by A) |
| O=C(/C=C1\CCCOc2cc(C(F)(F)F)ccc21)Nc1ccc2c(c1)C(O)CC2 (stereo not drawn) [Example 175, (E)-2-(8-trifluoromethyl-3,4-dihydrobenzo[b]oxepin-5(2H)-ylidene)-N-(indan-1-ol-6-yl)acetamide] | A (compounds of the present invention having an A2 value of less than 100 nM are represented by A) |
| O=C(/C=C1\CCCOc2cc(C(F)(F)F)ccc21)Nc1ccc2c(c1)C(=O)N(CCO)C2 [Example 176, (E)-2-(8-trifluoromethyl-3,4-dihydrobenzo[b]oxepin-5(2H)-ylidene)-N-(2-hydroxyethyl-2,3-dihydro-isoindol-1-on-6-yl)acetamide] | B (compounds having an A2 value of 100 nM or more are represented by B) |
| CN1C(=O)CCc2ccc(NC(=O)/C=C3\CCCOc4cc(C(F)(F)F)ccc43)cc21 [Example 178, (E)-2-(8-trifluoromethyl-3,4-dihydrobenzo[b]oxepin-5(2H)-ylidene)-N-(1-methyl-2-oxo-1,2,3,4-tetrahydroquinolin-7-yl)acetamide] | A (compounds of the present invention having an A2 value of less than 100 nM are represented by A) |
| O=C(/C=C1\CCCOc2cc(C(F)(F)F)ccc21)Nc1ccc2c(c1)C(CO)CCC2 (stereo not drawn) [Example 179, (E)-2-(8-trifluoromethyl-3,4-dihydrobenzo[b]oxepin-5(2H)-ylidene)-N-(8-hydroxymethyl-5,6,7,8-tetrahydronaphthalen-2-yl)acetamide] | A (compounds of the present invention having an A2 value of less than 100 nM are represented by A) |
| O=C(/C=C1\CCCOc2cc(C(F)(F)F)ccc21)Nc1cccc2c1CC(O)CO2 (stereo not drawn) [Example 183, (E)-2-(8-trifluoromethyl-3,4-dihydrobenzo[b]oxepin-5(2H)-ylidene)-N-(3-hydroxy-chroman-5-yl)acetamide] | A (compounds of the present invention having an A2 value of less than 100 nM are represented by A) |
| CCC(F)(F)C(=O)N1CC/C(=C\C(=O)Nc2cccc3c2CC(O)CN3)c2ccc(C(F)(F)F)cc21 (stereo not drawn) [Example 184, (E)-2-(1-(2,2-difluorobutanoyl)-7-trifluoromethyl-2,3-dihydroquinolin-4(1H)-ylidene)-N-(3-hydroxy-1,2,3,4-tetrahydroquinolin-5-yl)acetamide] | A (compounds of the present invention having an A2 value of less than 100 nM are represented by A) |
| CCC(F)(F)C(=O)N1CC/C(=C\C(=O)Nc2cccc3c2CC(O)C(=O)N3)c2ccc(C(F)(F)F)cc21 (stereo not drawn) [Example 185, (E)-2-(1-(2,2-difluorobutanoyl)-7-trifluoromethyl-2,3-dihydroquinolin-4(1H)-ylidene)-N-(3-hydroxy-2-oxo-1,2,3,4-tetrahydroquinolin-5-yl)acetamide] | A (compounds of the present invention having an A2 value of less than 100 nM are represented by A) |
| CCCCC(=O)N1CCC/C(=C\C(=O)Nc2cccc3c2CC(O)CC3)c2ccc(C(F)(F)F)cc21 (stereo not drawn) [Example 190, (E)-2-(8-trifluoromethyl-1-pentanoyl-1,2,3,4-tetrahydro-5H-benzo[b]azepin-5-ylidene)-N-(7-hydroxy-5,6,7,8-tetrahydronaphthalen-1-yl)acetamide] | A (compounds of the present invention having an A2 value of less than 100 nM are represented by A) |
| O=C(/C=C1\CCCNc2cc(C(F)(F)F)ccc21)Nc1ccc2cccnc2c1 [Example 191, (E)-2-(8-trifluoromethyl-1,2,3,4-tetrahydro-5H-benzo[b]azepin-5-ylidene)-N-(quinolin-7-yl)acetamide] | A (compounds of the present invention having an A2 value of less than 100 nM are represented by A) |
